The values that follow come from patent publication US7388016B2, “Dibenzonaphthyridine derivatives and methods of use thereof” (Wyeth, priority 2005, dated 2008).

This assay deals with T1, PDK-1 (Homo sapiens, UniProt O15530).
T1 sequence (O15530 1-556): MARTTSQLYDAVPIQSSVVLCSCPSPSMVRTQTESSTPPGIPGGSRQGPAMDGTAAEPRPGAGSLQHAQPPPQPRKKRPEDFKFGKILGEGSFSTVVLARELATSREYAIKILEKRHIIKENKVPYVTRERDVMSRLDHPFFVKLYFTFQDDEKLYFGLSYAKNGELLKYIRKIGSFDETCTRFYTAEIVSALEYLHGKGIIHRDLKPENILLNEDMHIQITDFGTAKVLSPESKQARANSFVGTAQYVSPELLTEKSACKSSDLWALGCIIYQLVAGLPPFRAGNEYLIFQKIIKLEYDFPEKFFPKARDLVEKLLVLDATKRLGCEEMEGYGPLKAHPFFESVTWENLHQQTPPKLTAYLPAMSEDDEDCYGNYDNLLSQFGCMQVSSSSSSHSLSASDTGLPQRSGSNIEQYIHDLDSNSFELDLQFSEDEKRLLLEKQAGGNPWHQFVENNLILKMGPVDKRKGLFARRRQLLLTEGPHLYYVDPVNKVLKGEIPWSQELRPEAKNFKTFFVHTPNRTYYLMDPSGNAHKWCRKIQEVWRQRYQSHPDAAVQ
Nature of the assay: In vitro PDK-1 inhibition ELISA assay (phosphorylation of SGK1 on Threonine 256). As to conditions: PDK-1 phosphorylates 6xHIS tagged SGK1, 17 minutes reaction, chemiluminescent detection. Type of assay: biochemical. As to the method: The ability of illustrative Dibenzonaphthyridine Derivatives to inhibit PDK-1 in vitro can be determined using the ELISA assay as decribed in Kobayashi et al., Biochem. J. 339:319-328 (1999) and Park et al., EMBO J. 18:3024-3033 (1999).
In this in vitro assay, PDK-1 kinase phosphorylates SGK1 on Threonine 256. After 17 minutes, the reaction is quenched via the addition of urea. The 6×HIS tagged SGK1 is then bound to 96 well Ni-NTA HisSorb plates and the phosphorylated SGK1 is detected using rabbit derived anti-phospho SGK antibody as the primary antibody and HRP coupled anti-rabbit antibody as the secondary antibody. HRP is then detected using a Chemiluminescent Substrate.

`COc1cc2c(cc1OCCN(C)CCN(C)C)ncc1c(N)nc3c(C)c(N)ccc3c12` [Ib-30, 10-{2-[[2-(dimethylamino)ethyl](methyl)amino]ethoxy}-11-methoxy-4-methyldibenzo[c,f]-2,7-naphthyridine-3,6-diamine]: the midpoint of inhibition, the IC50, lay at 281 nM.
`COc1cc2c(cc1OCCc1c[nH]c3ccccc13)ncc1c(N)nc3c(C)c(N)ccc3c12` [Ib-31, 10-[2-(1H-indol-3-yl)ethoxy]-11-methoxy-4-methyldibenzo[c,f]-2,7-naphthyridine-3,6-diamine] yielded an IC50 of 539 nM.
In turn, `COc1cc2c(cc1OCCc1ccc(N(C)C)cc1)ncc1c(N)nc3c(C)c(N)ccc3c12` [Ib-32, 10-{2-[4-(dimethylamino)phenyl]ethoxy}-11-methoxy-4-methyldibenzo[c,f]-2,7-naphthyridine-3,6-diamine] displayed an IC50 of 667 nM.
Turning to `COc1cc2c(cc1OCCC1CCN(C)CC1)ncc1c(N)nc3c(C)c(N)ccc3c12` [Ib-33, 11-methoxy-4-methyl-10-[2-(1-methylpiperidin-4-yl)ethoxy]dibenzo[c,f]-2,7-naphthyridine-3,6-diamine], inhibition was half-maximal at 384 nM (IC50).
For the compound `COc1cc2c(cc1OCC1CCCN(C)C1)ncc1c(N)nc3c(C)c(N)ccc3c12` (stereo not shown) [Ib-34, 11-methoxy-4-methyl-10-[(1-methylpiperidin-3-yl)methoxy]dibenzo[c,f]-2,7-naphthyridine-3,6-diamine], the IC50 is 1770 nM.
`COc1cc2c(cc1OCCCN1CCCC1=O)ncc1c(N)nc3c(C)c(N)ccc3c12` [Ib-35, 1-{3-[(7,10-diamino-2-methoxy-9-methyldibenzo[c,f]-2,7-naphthyridin-3-yl)oxy]propyl}pyrrolidin-2-one] came in with a 50% inhibitory concentration (IC50) of 111 nM.
As for `COc1cc2ncc3c(N)nc4c(C)c(N5C(=O)c6ccccc6C5=O)ccc4c3c2cc1OC` [Ib-36, 2-(6-amino-10,11-dimethoxy-4-methyldibenzo[c,f]-2,7-naphthyridin-3-yl)-1H-isoindole-1,3(2H)-dione], the figure is 1730 nM.
Compound `COc1cc2ncc3c(N)nc4cc(N)ccc4c3c2cc1OC` [Ib-38, 10,11-dimethoxydibenzo[c,f]-2,7-naphthyridine-3,6-diamine] returned a 50% inhibitory concentration (IC50) of 670 nM.
In turn, `COc1cc2ncc3c(N)nc4c(C)cccc4c3c2cc1OC` [Ib-39, 10,11-dimethoxy-4-methyldibenzo[c,f]-2,7-naphthyridin-6-amine] gave an IC50 of 258 nM.
`COc1cc2c(cc1OCCC(C)C)ncc1c(N)nc3c(C)c(N)ccc3c12` [Ib-40, 11-methoxy-4-methyl-10-(3-methylbutoxy)dibenzo[c,f]-2,7-naphthyridine-3,6-diamine] showed an IC50 of 1180 nM. Against the preceding compound, the IC50 is about 4.6-fold higher.
The figure for `COc1cc2c(cc1OCCC(C)(C)C)ncc1c(N)nc3c(C)c(N)ccc3c12` [Ib-41, 10-(3,3-dimethylbutoxy)-11-methoxy-4-methyldibenzo[c,f]-2,7-naphthyridine-3,6-diamine] is 6440 nM.
The figure for `COc1cc2c(cc1OCCCOCc1ccccc1)ncc1c(N)nc3c(C)c(N)ccc3c12` [Ib-42, 10-[3-(benzyloxy)propoxy]-11-methoxy-4-methyldibenzo[c,f]-2,7-naphthyridine-3,6-diamine] is 2440 nM; for `COc1cc2c(cc1OC[C@@H]1CCCN1Cc1ccccc1)ncc1c(N)nc3c(C)c(N)ccc3c12` [Ib-43, 10-{[(2S)-1-benzylpyrrolidin-2-yl]methoxy}-11-methoxy-4-methyldibenzo[c,f]-2,7-naphthyridine-3,6-diamine] it is 2980 nM; for `COc1cc2c(cc1OC[C@@H]1CCCN1C[C@@H]1CCCN1C)ncc1c(N)nc3c(C)c(N)ccc3c12` [Ib-44, 11-methoxy-4-methyl-10-[((2S)-1-{[(2S)-1-methylpyrrolidin-2-yl]methyl}pyrrolidin-2-yl)methoxy]dibenzo[c,f]-2,7-naphthyridine-3,6-diamine] it is 949 nM.
In turn, `COc1cc2c(cc1OCCC1CCCC1)ncc1c(N)nc3c(C)c(N)ccc3c12` [Ib-45, 10-(2-cyclopentylethoxy)-11-methoxy-4-methyldibenzo[c,f]-2,7-naphthyridine-3,6-diamine] returned an IC50 of 4530 nM.
`COc1cc2c(cc1OCCC1CC1)ncc1c(N)nc3c(C)c(N)ccc3c12` [Ib-46, 10-(2-cyclopropylethoxy)-11-methoxy-4-methyldibenzo[c,f]-2,7-naphthyridine-3,6-diamine] showed a 50% inhibitory concentration (IC50) of 212 nM.
As to `CCOCCOc1cc2ncc3c(N)nc4c(C)c(N)ccc4c3c2cc1OC` [Ib-47, 10-(2-ethoxyethoxy)-11-methoxy-4-methyldibenzo[c,f]-2,7-naphthyridine-3,6-diamine], it took 172 nM to reach half-maximal inhibition (IC50).
Compound `COc1cc2c(cc1O)ncc1c(N)nc3c(C)c(N)ccc3c12` [Ib-48, 7,10-diamino-2-methoxy-9-methyldibenzo[c,f]-2,7-naphthyridin-3-ol] returned an IC50 of 1370 nM.
`COc1cc2ncc3c(N)nc4c(C)c(Cl)ccc4c3c2cc1OC` [Ib-49, 3-chloro-10,11-dimethoxy-4-methyldibenzo[c,f]-2,7-naphthyridin-6-amine] returned a half-inhibitory concentration (IC50) of 2220 nM.
`COc1cc2ncc3c(N)nc4c(C)c(O)ccc4c3c2cc1OC` [Ib-50, 6-amino-10,11-dimethoxy-4-methyldibenzo[c,f]-2,7-naphthyridin-3-ol] gave a half-inhibitory concentration (IC50) of 46 nM. This IC50 is about 48-fold lower than that of the compound before.
As for `COc1cc2ncc3c(N)nc4c(C)c(OC)ccc4c3c2cc1OC` [Ib-51, 3,10,11-trimethoxy-4-methyldibenzo[c,f]-2,7-naphthyridin-6-amine], the figure is 48.7 nM; as for `CNc1nc2c(C)c(N)ccc2c2c1cnc1cc(OC)c(OC)cc12` [Ic-1, 10,11-dimethoxy-N-6,4-dimethyldibenzo[c,f]-2,7-naphthyridine-3,6-diamine], 36600 nM.
